Laboratory results as given in ChEMBL document CHEMBL4266028, “Salviachinensines A-F, Antiproliferative Phenolic Derivatives from the Chinese Medicinal Plant Salvia chinensis” (J Nat Prod, 2018).
Active and inactive are the calls of the source. No cut-off for these calls is given here.

Key:
Type in all cases: functional, cell-based
MOLM-14 = assay: Antiproliferative activity against human MOLM14 cells by Cell-Titer Glo assay
MV4-11 = assay: Antiproliferative activity against human MV4-11 cells by Cell-Titer Glo assay
MOLM-13 [1] = assay: Antiproliferative activity against human MOLM13 cells by Cell-Titer Glo assay
MOLM-13 [2] = assay: Induction of apoptosis in human MOLM13 cells assessed as increase in caspase-3 cleavage at 5 uM after 24 hrs by Western blot analysis
MOLM-13 [3] = assay: Cell cycle arrest in human MOLM13 cells assessed as accumulation at G0/G1 phase at 5 uM by flow cytometry
MOLM-13 [4] = assay: Induction of apoptosis in human MOLM13 cells assessed as increase in PARP cleavage at 5 uM after 24 hrs by Western blot analysis

IC50 (MOLM-14; Homo sapiens, MOLM-14) [µM] | IC50 (MV4-11) [µM] | IC50 (MOLM-13 [1]) [µM] | SMILES | Activity (MOLM-13 [2]) | Activity (MOLM-13 [3]) | Activity (MOLM-13 [4]) | IC50 (MOLM-14; molm-14) [µM]
> 10 | > 10 | 6.4 | O=C(O)/C=C/c1ccc(O)c(O)c1 [CAFFEIC ACID] | – | – | – | –
> 10 | > 10 | 8.4 | COC(=O)[C@@H](Cc1ccc(O)c(O)c1)OC(=O)/C=C/c1ccc(O)c(O)c1 [METHYL ROSMARINATE] | – | – | – | –
7.1 | > 10 | 2.3 | O=C1C[C@H]2c3cc(O)c(O)cc3[C@H](c3ccc(O)c(O)c3)[C@H]2O1 | Active | Active | Active | –
7.1 | > 10 | 2.9 | O=C(/C=C/c1ccc(O)c(O)c1)O[C@H](Cc1ccc(O)c(O)c1)C(=O)O [ROSMARINIC ACID] | – | – | – | –
< 0.001 | < 0.001 | < 0.001 | Nc1ccc(-c2ccc3ncc4ccc(=O)n(-c5cccc(C(F)(F)F)c5)c4c3c2)cn1 | – | – | – | –
> 10 | > 10 | 7.5 | COC(=O)[C@H](O)Cc1ccc(O)c(O)c1 | – | – | – | –
> 10 | > 10 | 6.7 | COC(=O)[C@@H](Cc1ccc(O)c(O)c1)OC(=O)/C=C/c1ccc(O)c(O)c1/C=C/c1ccc(O)c(O)c1 | – | – | – | –
> 10 | > 10 | 5.2 | COC(=O)[C@H](O)Cc1ccc2c(c1)O[C@H]([C@H](OC)c1ccc(O)c(O)c1)O2 | – | – | – | –

SMILES | IC50 (MOLM-14; Homo sapiens, MOLM-14) [µM] | IC50 (MV4-11) [µM] | IC50 (MOLM-13 [1]) [µM] | Activity (MOLM-13 [2]) | Activity (MOLM-13 [3]) | Activity (MOLM-13 [4]) | IC50 (MOLM-14; molm-14) [µM]
O=C(/C=C/c1ccc(O)c(O)c1/C=C/c1ccc(O)c(O)c1)O[C@H](Cc1ccc(O)c(O)c1)C(=O)O [SALVIANOLIC ACID A] | – | > 10 | 2.5 | – | – | – | 6.2
